The source of these data is US7790700B2, “Derivatives of partially desulphated glycosaminoglycans endowed with antiangiogenic activity and devoid of anticoagulating effect” (Sigma-Tau Industrie Farmaceutiche Riunite S.p.A., priority 2000, dated 2010).

One series has as its system CAM. Particulars: CAM test in the presence of corticosteroids, Lapierre et al. Table III; cited from earlier work.
Series [1] concerns chick embryo chorioallantoic membrane. The series is described as follows: Angiostatic activity on CAM model (gelatin sponge). The series is classed as in vivo. The procedure:
For the study of angiogenesis the model used was the chick embryo chorioallantoic membrane model (Ribatti e al. Int. J. Dev. Biol., 40, 1189 (1996)).
300 embryonated hens' eggs were incubated at 37° C. in constant humidity conditions. On the 3rd day of incubation, after aspirating 2-3 ml of albumen from the acute pole of the egg so as to detach the CAM from the shell, a window was cut with scissors in the shell. The vessels underlying the CAM were thus exposed. The window was closed with a transparent glass panel and the eggs were put back into the incubator. On the 8th day of incubation, in sterile conditions, the CAMs were treated according to the protocol described below using a technique developed recently (Ribatti et al. J. Vasc. Res. 34, 455 (1997)), which involves the use of sterile gelatin sponges measuring 1 mm^2 in size. […] The sponges were first rested on the surface of the CAM, and then 3 μl of solution of the test substance were pipetted onto the surface of the sponge. The CAMs were examined daily using a Zeiss SR stereomicroscope equipped with a photographic device. The experiments were discontinued on the 12th day of incubation, when an overall assessment of the angiogenic activity of the molecules was carried out, expressed as percentage inhibition in relation to the number of experiments initiated and completed (Table 9). In addition, for compound ST1514, assayed at the concentration of 100 μg/embryo, a macroscopic quantitative evaluation of the angiostatic activity was also carried out according to the technique proposed by Brooks et al. (Science, 264, 569, (1994)), counting the number of vessels surrounding the sponge. The number of vessels was compared with that of the control sponges treated with PBS (vehicle of the test compound) and with FGF-2 (positive control).

The next series relates to foetal BAEC GM 7373. Nature of the series: Test of cell proliferation in foetal BAEC GM 7373. Conditions: GM7373, 10 ng/ml FGF-2, cell count. The class given is cell-based, bovine. How it is done:
GM7373 cells were seeded at a density of 70,000 cells/cm^2 in 96-well plates in MEM+ 10% FCS medium. After 24 hours, the cells were washed with serum-free medium and treated with 10 ng/ml of FGF-2 in medium containing 0.4% FCS. After 8 hours, the test compounds were added to the medium at 5 concentrations ranging from 10 ng/ml to 100 μg/ml. After a further 16 hours, the cells were trypsinised and counted in a Burker chamber. The ID50 was calculated for each compound and the results are the means of 2 experiments in triplicate.

A further series concerns BAEC cells. The series is described as follows: Test of cell proliferation in BAEC. The class given is cell-based, bovine. Particulars: 30 ng/ml FGF-2, 3 days, crystal-violet. The procedure: BAEC cells at the 7th pass were seeded at a density of 2,500 cells/cm^2 in 96-well in EBM medium without bovine brain extract and hEGF. To this medium were added 30 ng/ml of FGF-2 and each of the test compounds at 5 concentrations ranging from 10 ng/ml to 100 μg/ml. After 3 days the cells were fixed and stained with crystal-violet and the optical density was determined by means of an ELISA microplate reader. Each experimental point was done in quadruplicate and the ID50 was calculated.

Series [2] has as its target T1, FGFR/FGF2/HSPG ternary complex (Homo sapiens, UniProt P09038).
T1 construct: FGFR-1 made by transfected HSPG-deficient CHO 745/flg cells; HSPGs on fixed CHO-K1 cells
The series is described as follows: Inhibition of FGF2-mediated intercellular adhesion of CHO-K1 and CHO-745flg cells. The series is classed as cell-based, Chinese hamsters. The source says:
To this end an in-vitro model was designed capable of assessing the interference of the various different heparin derivatives with bFGF binding to its own receptor.
These latter cells were stably transfected with cDNA for green fluorescent protein and for this reason could be observed under the fluorescence microscope with a combination of filters for the detection of green emission. In brief, the technique is based on the possibility that the two types of cells may interact (form stable bonds) only if FGF is added to the two cell types. In fact, in this case, the heparan sulphates of the CHO-745flg cells will bind to FGF, which in turn will bind to the CHO-K1 cells, establishing a bridge. The binding that occurs is detectable as a result of the green fluorescence emitted by the CHO-745flg cells.
CHO-K1 cells were seeded at a density of 90,000 cells/cm^2 in 24-well plates. After 24 hours the cells were fixed in 3% glutaraldehyde in PBS for 2 hours at 4° C. and washed with 0.1 M glycine/PBS. On the fixed monolayers CHO 745/flg cells, transfected with FGFR-1, at a density of 50,000 cells/cm^2 in DMEM containing 10 mM EDTA, 30 ng/ml FGF-2 and increasing doses of the test compounds. After 2 hours' incubation at 37° C., the adhering cells were counted under the inverted microscope. The results were expressed as percentage of the number of cells adhering compared to those measured in the absence of the test compounds.

The next series relates to Endothelial Cell. The series is described as follows: Endothelial cell proliferation (Table 11). The series is classed as cell-based. Particulars: Table 11, endothelial cell proliferation.
Series [3] concerns L6-WT1 cells (rat myoblasts transfected with FGFR-1). The series is described as follows: Inhibition of DNA synthesis in L6 cells transfected with FGFR-1. The class given is cell-based. Conditions: test compound 100 μ/ml. How it is done:
L6-WT1 cells (rat myoblasts transfected with FGFR-1) were seeded at a density of 25,000 cells/cm^2 in 48-well plates in DMEM+ 10% FCS. After 24 hours the cells were washed with serum-free medium and incubated for 48 hours with DMEM+ 0.5% FCS. The cells were then incubated for 16 hours with FGF-2 at the concentrations of 15 and 30 ng/ml in the presence or absence of the test compounds (all at 100 μ/ml). At the end of the incubation 3H-thymidine (0.25 μCi/well) was added without changing the medium. After 6 hours, precipitable TCA was measured. Each experimental point is the mean of 3 determinations.

For series [4] the following is noted: background table, structure/antimetastatic activity; cited from earlier work.
Series [5] is described as follows: Evaluation of heparin toxicity in Balb/c mice. Particulars: q2dx5. The class given is in vivo. How it is done: 20 6-week-old female Balb/c mice weighing 20 g (Harlan), divided into groups by casual randomisation, were treated with heparin sodium, as a reference, and with the compound according to the present invention called ST1514. The treatment schedule was of the q2dx5 type, i.e. 5 total administrations at intervals of 2 days, administering 200 μl/mouse of 50 mg/kg/10 ml and 25 mg/kg/10 ml solutions subcutaneously.
48 hours after the last administration of the test substances a blood sample is taken for full blood count and haematological analysis.
Blood sampling: the mice are placed in a hermetically sealed box, into which is insufflated CO2 in an amount sufficient to stun the animal. Blood is then taken from the retro-orbital plexus of each animal (approximately 1 ml of blood/mouse) which is distributed in amounts of 0.4 ml of blood/mouse in Eppendorf test tubes containing 20 μl of Vister heparin (5000 U/ml) for carrying out the full blood count and haematological analysis; and the same amount of blood is distributed in other Eppendorf test tubes containing 50 μl of 3.8% sodium citrate in order to perform prothrombin time determinations. After taking the blood sample, each animal is sacrificed by cervical dislocation.
Full blood count: the appliance (Cell Analyzer 580 A, DELCON) is used according to the standard procedure described in the operating manual. The blood sample (25 μl) is taken by the dilutor and brought up to a volume of 10 ml (dil. 1:400) with isotonic solution (PLTA saline, DELCON). From this solution (called solution A), the dilutor automatically takes a sample of 100 μl and brings it up to a volume of 10 ml (dil. 1:100), thus obtaining solution B. To solution A are added 3 drops of Emosol (DELCON) for lysis of the red blood cells. This solution is used for the WBC reading. Solution B, on the other hand, is used for the RBC and platelet (PLT) readings. Each sample is read in duplicate.
None of the study treatment groups presents significant differences in the numbers of white blood cells as compared to the control group.

[6] abbreviates: 50 mg/kg and 25 mg/kg subcutaneously.

T1 sequence (P09038 143-288, one chain of several): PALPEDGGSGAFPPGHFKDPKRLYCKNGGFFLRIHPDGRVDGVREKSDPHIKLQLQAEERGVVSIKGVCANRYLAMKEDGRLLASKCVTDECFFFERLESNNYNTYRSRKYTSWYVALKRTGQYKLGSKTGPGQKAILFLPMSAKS

Turning to 2-O-desulfated heparin, in the series on CAM, the “antiangiogenic activity relative to heparin (in words)” value is “partly maintained the antiangiogenic activity of heparin”.
In the case of “FGF-2: basic fibroblast growth factor, positive control with potent angiogenic activity on the CAM”, the “N. vessels at sponge/CAM interface” value in series [1] (1 μg/embryo, positive control, macroscopic quantitative evaluation (Brooks)) is listed as 50 + 4.
For Heparin, the “Inhibition (ID50) of cell proliferation” value worked out at 2 mg/L with foetal BAEC GM 7373 and 100 mg/L with BAEC cells. For the same substance, the “CAM (% inhibition)” value in [1] (100 μg/embryo) is 0%. The “angiostatic activity on CAM (in words)” value in series [1] (remark below Tables 9 and 10) is “no activity”. The “Inhibition (ID50) of intercellular adhesion” value in series [2] (30 ng/ml FGF-2, 2 hours at 37° C., 6 concentrations 1 ng/ml to 100 μg/ml) worked out at 100. Further, the “Cell-Cell Adh. (ID50, ng/mL)” value in series [2] (Table 11, FGF2-mediated cell-cell adhesion) turned out to be 100 ng/mL. Further, the “ID50, FGF2-mediated cell-cell adhesion test” value in [2] (text b166) was found to be 0.1 mg/L. The “Cell Prolif. (ID50, ng/mL)” value in the series on Endothelial Cell was 2 000 ng/mL. In addition, the “Incorporation of 3H-thymidine (% vs. control)” value in series [3] (FGF-2 15 ng/ml) came out at 50 % vs. control; in [3] (FGF-2 30 ng/ml), 74 % vs. control. The “% inhibition (antimetastatic activity)” value in series [4] is given as 97%.
Consider heparin sodium, for which, in series [5] (25 mg/kg subcutaneously), the “platelets compared to the control group” value is on record as “significant platelet deficiency”. In [5] (setting [6]), the “haematoma at the inoculum site” value is on record as “marked haematoma at the inoculum site” and the liver at autopsy entry is “livers with abnormal characteristics”. In addition, the “red blood cells compared to the control group” value in [5] (50 mg/kg and 25 mg/kg subcutaneously, 48 hours after last administration) is given as “reduction in red blood cells”.
